Where “and” joins values, the source holds several entries; their conditions need not be identical. Equal entries are not always repeated.
Key:
[1] = DPPH radical-scavenging activity assay; conditions: compounds and controls at 100 µM in EtOH, 30 min, 517 nm; mean ± SD
Procedure: The scavenging activity of phenolic compounds against DPPH radicals was assessed using Kokanova-Nedialkova and Nedialkov methods, with some modifications. Briefly, 300 µL of each compound in EtOH (100 µM) was mixed with 300 µL of DPPH ethanol solution (100 µM). The reaction mixture was thoroughly vortexed and left in the dark at room temperature for 30 min. The absorbance of the mixture was measured at 517 nm. The following equation calculates the ability to scavenge DPPH radicals: %DPPH radical scavenging activity=Abscontrol−Abssample/Abscontrol×100, where Abscontrol is the absorbance of the DPPH radical in EtOH, and Abssample is the absorbance of the DPPH radical solution mixed with a sample.
Positive controls were vitamin C (100 µM) and Trolox (100 µM).

[2] = ABTS radical-scavenging activity assay; conditions: compounds and controls at 100 µM in EtOH, 7 min, 734 nm, mean ± SD
Procedure: For ABTS assay, the procedure followed the method of Kokanova-Nedialkova and Nedialkov with some modifications. The stock solutions included 7 mM ABTS and 2.4 mM potassium persulfate. The working solution was then prepared by mixing the two stock solutions in equal quantities and allowing them to react for 12–14 h at room temperature in the dark. The solution was then diluted by mixing 1 mL of the ABTS solution with 30 mL of ethanol. A fresh ABTS solution was prepared for each assay. Furthermore, 300 µL of each compound in EtOH (100 µM) was allowed to react with 1 mL of the ABTS solution, and the absorbance was taken at 734 nm after 7 min using a spectrophotometer. The ABTS scavenging capacity of the compound was calculated as: %ABTS radical scavenging activity=Abscontrol−Abssample/Abscontrol×100 where Abscontrol is the absorbance of the ABTS radical in ethanol, and Abssample is the absorbance of an ABTS radical solution mixed with a sample.
Vitamin C (100 µM) and Trolox (100 µM) were used as positive controls.

[3] = target: T1, lipase from porcine pancreas, Type II (Sus scrofa, UniProt P00591); test: Assay for modulation of lipase activity (LC-MS, p-nitrophenyl laurate substrate); type: biochemical; conditions: for Effect on lipase activity (in words): tested at 200-12.5 µM; for Fold increase of lipase activity compared to the control: 200 µM
T1 construct: lipase from porcine pancreas, Type II; purchased Sigma-Aldrich L3126; host or cells: porcine pancreas (tissue-derived)
T1 sequence (P00591 1-450): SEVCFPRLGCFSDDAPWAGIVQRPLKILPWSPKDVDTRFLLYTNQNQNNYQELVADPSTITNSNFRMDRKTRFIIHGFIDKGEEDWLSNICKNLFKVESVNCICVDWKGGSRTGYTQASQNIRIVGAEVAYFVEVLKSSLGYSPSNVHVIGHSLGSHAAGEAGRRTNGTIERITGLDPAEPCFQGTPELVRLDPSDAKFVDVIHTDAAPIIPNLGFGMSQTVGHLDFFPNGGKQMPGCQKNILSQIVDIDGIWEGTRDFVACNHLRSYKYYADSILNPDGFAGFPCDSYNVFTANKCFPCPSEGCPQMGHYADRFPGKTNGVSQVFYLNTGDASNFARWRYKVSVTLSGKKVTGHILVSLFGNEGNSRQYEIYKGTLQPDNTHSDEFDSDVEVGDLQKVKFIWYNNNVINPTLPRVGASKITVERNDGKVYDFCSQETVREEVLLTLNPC
Procedure: This assay was adapted from previous reports for the determination of anti-lipase and pro-lipase activity by LC-MS [14]. Briefly, lipase from porcine pancreas, Type II (Sigma-Aldrich, St. Louis, MA, USA, product L3126), was dissolved in ultra-pure water at a 5 mg/mL concentration. The supernatant was then used after centrifugation at 15,000 rpm for 10 min. The assay buffer was 100 mM Tris buffer (pH 8.2), and p-nitrophenyl laurate was used as the substrate. The substrate stock was 2 mg p-nitrophenyl laurate dissolved in 1 mL isopropanol and 4 mL 5 mM sodium acetate (pH 5.0) containing 1% Triton X-100 (Fisher Scientific, Bridgewater, NJ, USA). The mixture was heated to facilitate dissolution, thoroughly mixed, and then cooled to room temperature. The assay mixture (1 mL) contained 20 µL of a sample in DMSO (or DMSO as a control), 860 µL of Tris buffer (pH 8.2), and 30 µL of enzyme solution. The mixture was combined, shaken, and incubated at 37 °C for 15 min. Then, 90 µL of substrate solution was added and shaken again. The reaction was processed at 37 °C for 2 h and stopped by adding 800 µL CH3CN to 200 µL of the assay mixture. The supernatant was then used for LC-MS analysis after centrifugation at 15,000 rpm for 10 min. The amount of p-nitrophenol released from p-nitrophenyl laurate was quantified using LC-MS. Lipase inhibitory activity (%) was calculated according to the formula: % Lipase inhibitory activity=Aк−Asample/Aк×100, where Aк is the area of the p-nitrophenol peak in the control, and Asample is the area of the p-nitrophenol peak in the sample.
Pro-lipase activity (%) was calculated according to the formula: % Prolipase activity=Asample−Ak/Aк×100, where Aк is the area of the p-nitrophenol peak in the control, and Asample is the area of the p-nitrophenol peak in the sample.

α-glucosidase = test: Anti-α-glucosidase activity assay (LC-MS, p-nitrophenyl-α-D-glucopyranoside substrate); type: biochemical; conditions: five concentrations 1000-62.5 µM, NA = the compound is not active; for IC50: read-out: α-Glucosidase Inhibitory Activity (IC50 ± SD)
Procedure: The α-Glucosidase inhibitory activity was determined by LC-MS using p-nitrophenyl-α-D-glucopyranoside as the substrate, as described by Kokanova-Nedialkova et al.. The assay mixture (160 µL) was prepared accordingly to Kang et al. with some modifications. An aliquot of 20 µL of a sample in phosphate buffer (pH 6.8) containing 10% DMSO (or phosphate buffer containing 10% DMSO as a control), 100 µL phosphate buffer (pH 6.8), and 20 µL enzyme solution (0.2 U/mL α-glucosidase in phosphate buffer) were mixed and incubated at 37 °C for 15 min. Then, 20 µL of substrate solution (2.5 mM p-nitrophenyl-α-D-glucopyranoside, prepared in the same buffer) was added. The reaction was processed at 37 °C for 15 min and stopped by adding 840 µL acetonitrile (AcCN). The supernatant was then used for LC-MS analysis after centrifugation at 12,000 rpm for 10 min. The amount of p-nitrophenol released from p-nitrophenyl-α-D-glucopyranoside was quantified using liquid chromatography-[…] (LC-MS). The inhibitory rates (%) were calculated according to the formula: % α−Glucosidase inhibitory activity=Aк−Asample/Aк×100, where Aк is the area of the p-nitrophenol peak in the control, and Asample is the area of the p-nitrophenol peak in the sample.

SMILES | Effect on lipase activity (in words) [3] | Fold increase of lipase activity compared to the control [3] | IC50 (α-glucosidase) | DPPH % (radical-scavenging activity) [1] | ABTS % (radical-scavenging activity) [2] | α-Glucosidase Inhibitory Activity (IC50 ± SD) (α-glucosidase) | ABTS % (radical-scavenging activity) ([2]; listed as Vitamin C)
O=C1O[C@H]([C@@H](O)CO)C(O)=C1O [Vit C, reference compound] |  |  |  | 59.44 ± 0.42% | 66.21 ± 0.45% |  | 66.21%
COC(=O)CC(CC(O)C(C)C)O[C@@H]1O[C@H](COC(=O)/C=C/c2ccc(O)cc2)[C@@H](O)[C@H](O)[C@H]1O (stereo partly drawn) [HC7, Methyl 3-O-{6-[(2E)-p-hydroxycinnamoyl]-β-glucopyranosyl}-6-methyl-5-hydroxyheptanoate] | did not show any significant effect on lipase activity |  |  | 11.48% and 11.48 ± 0.21% | 26.88% and 26.88 ± 0.33% | did not exhibit measurable inhibitory activity | 
O=C(C=Cc1ccc(O)cc1)OC1CC(O)(C(=O)O)CC(O)C1O (centres unmarked) [HC1, coumaroylquinic acid] | do not inhibit lipase activity |  | 44 ± 5 µM | 18.95% and 18.95 ± 0.36% | 22.12% and 22.12 ± 0.63% |  | 
CC(=O)OC1C(Oc2cc(O)cc(O)c2C(=O)c2ccccc2)OC(CO)C(O)C1O [HC4, 4,6-Dihydroxy Benzophenone-2-O-β-D-2″-Acetylglucopyranoside] | did not show any significant effect on lipase activity |  |  | 14.63% and 14.63 ± 0.50% | 70.20% and 70.20 ± 0.23% | did not exhibit measurable inhibitory activity | 
Cc1c(C)c2c(c(C)c1O)CCC(C)(C(=O)O)O2 (centres unmarked) [Trolox, reference compound] |  |  |  | 88.33 ± 0.33% | 94.16% and 94.16 ± 0.32% |  | 

Further lines, with some results ahead:

Effect on lipase activity (in words) [3] | Fold increase of lipase activity compared to the control [3] | IC50 (α-glucosidase) | SMILES | DPPH % (radical-scavenging activity) [1] | ABTS % (radical-scavenging activity) [2] | α-Glucosidase Inhibitory Activity (IC50 ± SD) (α-glucosidase) | ABTS % (radical-scavenging activity) ([2]; listed as Vitamin C)
do not inhibit lipase activity |  |  | COC(=O)C1(O)CC(O)C(O)C(OC(=O)C=Cc2ccc(O)c(O)c2)C1 (centres unmarked) [HC5, methyl ester of chlorogenic acid] | 84.57% and 84.57 ± 0.27% | 71.27% and 71.27 ± 0.08% | did not exhibit measurable inhibitory activity | 
do not inhibit lipase activity | fivefold | 206 ± 13 µM | O=c1c(OC2OC(CO)C(O)C(O)C2O)c(-c2cc(O)c(O)c(O)c2)oc2cc(O)cc(O)c12 (centres unmarked) [HC3, myricetin-3-O-galactoside] | 82.70% and 82.70 ± 0.34% | 96.04% and 96.04 ± 0.37% |  | 
do not inhibit lipase activity |  | 371 ± 9 µM | CC(C)C1CC(OC2OC(COC(=O)C=Cc3ccc(O)cc3)C(O)C(O)C2O)CC(=O)O1 [HC6, 4-O-{6-[(2E)-p-Hydroxycinnamoyl]-β-D-Glucopyranosyl}-6-isopropyl-tetrahydro-2H-pyran-2-one] | 15.93% and 15.93 ± 0.33% | 25.50% and 25.50 ± 0.12% |  | 
do not inhibit lipase activity | fivefold |  | O=c1c(OC2OC(CO)C(O)C(O)C2O)c(-c2cc(O)c(O)c(O)c2)oc2cc(O)cc(O)c12 (centres unmarked) [HC2, myricetin-3-O-glucoside] | 84.32% and 84.32 ± 0.23% | 97.23% and 97.23 ± 0.45% | did not exhibit measurable inhibitory activity | 
